# Assay results published in patent publication US10703843B2, “Compositions and methods for bonding glues, adhesives, and coatings to surfaces” (University of Virginia Patent Foundation, priority 2014, dated 2020).
# Assays:
# [1] = Measured solubilities of ECA and PECA in solvents and of solvents in PECA; conditions: ±10%; for Solubility (wt %) ECA in: solubility of ECA in the listed solvent; for Solubility (wt %) PECA in: solubility of PECA in the listed solvent; for Solubility (wt %) in PECA: solubility of the listed solvent in PECA
# [2] = at 20° C.; from Refs [18], [19]; cited from earlier work
# [3] = from Ref. [17]; cited from earlier work
Compound,Solubility (wt %) ECA in [1],Solubility (wt %) PECA in [1],Solubility (wt %) in PECA [1],σ surface tension [2] [mN/m],ET^N normalized empirical parameter of solvent polarity [3]
"COCCOC [1,2-dimethoxyethane]",miscible,miscible,miscible,–,–
CC(C)=O [acetone],miscible,miscible,miscible,24.1,0.355
C1CCCCC1 [cyclohexane],–,–,–,25.2,0.006
CCOCC [diethyl ether],miscible,0.10 wt %,–,17.1,0.117
CCOC(C)=O [ethyl acetate],–,–,–,24.1,0.228
CCCCCCC [n-heptane],7.5 wt %,0.05 wt %,0.4 wt %,20.1,0.012
CCCCCC [n-hexane],–,–,–,18.4,0.009
CCCCC [n-pentane],11.4 wt %,0.11 wt %,0.8 wt %,16.1,0.009
Cc1ccccc1 [toluene],–,–,–,–,0.099
xylene,miscible,0.24 wt %,–,29.3,0.074
